Source: paper PMC11091072, “Targeting bacterial nickel transport with aspergillomarasmine A suppresses virulence-associated Ni-dependent enzymes” (Nature Communications, 2024)
“And” between values parts separate entries of the source, which are not always exact repeats. Equal values may be shown once. Read-outs that look alike come from different tables or passages of the source.

Columns and labels:
HEK293 cells = assay: HEK293 cytotoxicity assay (Cell Titer Glo 2.0)
K. pneumoniae [1] = type: cell-based, Klebsiella pneumoniae; settings: 200 μM, 24 h exposure
NikA [2] = biological target: NikA (Klebsiella pneumoniae, UniProt A6TFA3); type: binding
Chain of NikA (Klebsiella pneumoniae, UniProt A6TFA3) (A6TFA3 entry or part of it): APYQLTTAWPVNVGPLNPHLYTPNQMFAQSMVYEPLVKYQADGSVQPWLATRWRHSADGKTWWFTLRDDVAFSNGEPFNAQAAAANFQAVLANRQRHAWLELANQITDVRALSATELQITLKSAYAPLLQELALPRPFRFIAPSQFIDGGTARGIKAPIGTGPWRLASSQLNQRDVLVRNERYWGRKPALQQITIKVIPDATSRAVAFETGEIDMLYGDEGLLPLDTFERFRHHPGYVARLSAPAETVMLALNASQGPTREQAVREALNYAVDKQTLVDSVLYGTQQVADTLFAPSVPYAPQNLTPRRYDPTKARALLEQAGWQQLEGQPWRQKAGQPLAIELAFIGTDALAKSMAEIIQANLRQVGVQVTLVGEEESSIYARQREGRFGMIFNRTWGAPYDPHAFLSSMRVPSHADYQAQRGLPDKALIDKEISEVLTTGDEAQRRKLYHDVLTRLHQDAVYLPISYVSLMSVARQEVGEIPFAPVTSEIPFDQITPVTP

NikA [3] = type: binding, Klebsiella pneumoniae; settings: 100 μM
[4] = test system: S. aureus urease activity (whole cell); type: cell-based, Staphylococcus aureus; settings: S. aureus, artificial urine, 24 h
S. aureus = type: cell-based, Staphylococcus aureus; settings: 200 μM, 24 h
[5] = test system: K. pneumoniae urease activity (Ni2+ uptake); assay: Competition of Zn-AMA with Ni-(L-His)2 (urease-dependent pH); type: cell-based, Klebsiella pneumoniae; settings: Zn-AMA 0 μM
K. pneumoniae [6] = type: cell-based, Klebsiella pneumoniae; settings: Chelex-treated nitrogen-limited medium
[7] = pH 7.5, 2:1 complex, cited from earlier work

Compound: N[C@@H](CN[C@@H](CN[C@@H](CC(=O)O)C(=O)O)C(=O)O)C(=O)O.[Co+2] [Co-AMA]
- HEK 293T cytotoxicity assay raw signal (HEK293 cells; Co-AMA 0.5 μg/mL): 622984 and 609603 and 578025
- HEK 293T cytotoxicity assay raw signal (HEK293 cells; Co-AMA 1 μg/mL): 648007 and 588509 and 584554
- HEK 293T cytotoxicity assay raw signal (HEK293 cells; Co-AMA 2 μg/mL): 653814 and 579149 and 584837
- HEK 293T cytotoxicity assay raw signal (HEK293 cells; Co-AMA 4 μg/mL): 624260 and 594763 and 611086
- HEK 293T cytotoxicity assay raw signal (HEK293 cells; Co-AMA 8 μg/mL): 684397 and 665902 and 598886
- HEK 293T cytotoxicity assay raw signal (HEK293 cells; Co-AMA 16 μg/mL): 641409 and 612229 and 581248
- HEK 293T cytotoxicity assay raw signal (HEK293 cells; Co-AMA 32 μg/mL): 567905 and 544667 and 548517
- HEK 293T cytotoxicity assay raw signal (HEK293 cells; Co-AMA 64 μg/mL): 578062 and 599992 and 521662
- HEK 293T cytotoxicity assay raw signal (HEK293 cells; Co-AMA 128 μg/mL): 421336 and 474275 and 462640
- HEK 293T cytotoxicity assay raw signal (HEK293 cells; Co-AMA 256 μg/mL): 411884 and 395016 and 434679
- HEK 293T cytotoxicity assay raw signal (HEK293 cells; Co-AMA 512 μg/mL): 266726 and 265058 and 263860
- reduction in HEK293 cell viability (HEK293 cells; highest test concentration 512 μg/mL, 48 h): 50%
- bacterial viability (spot dilutions) (K. pneumoniae [1]): do not affect bacterial viability
- n (stoichiometry, ITC) (NikA [2]; 37 °C, pH 7.5): 1.06
- ∆G (NikA [2]; 37 °C, pH 7.5): -6.9 kcal/mol
- ∆H (NikA [2]; 37 °C, pH 7.5): -10.5 kcal/mol
- −T∆S (NikA [2]; 37 °C, pH 7.5): 3.6 kcal/mol
- Kd (NikA [2]; read-out: KD for NikA (ITC), 25 mM Tris-HCl, 150 mM NaCl, 0.1% Triton X-100, pH 7.5, 37 °C): 13 ± 0.4 µM
- effect on stability of recombinant NikA (NikA [3]): increase NikA’s stability
- effect on urease activity [4]: inhibited urease activity similarly
- bacterial viability (spot dilutions) (S. aureus): not lethal to bacteria

Compound: N[C@@H](Cc1c[nH]cn1)C(=O)O [L-His, L-histidine, reference compound]
- pH of culture (Zn-AMA v.s. L-His) ([5]; L-His 3.12 μM): 8.06 and 8.1
- pH of culture (Zn-AMA v.s. L-His) ([5]; L-His 6.25 μM): 8.07 and 8.1
- pH of culture (Zn-AMA v.s. L-His) ([5]; L-His 12.5 μM): 7.85 and 7.9
- growth with urea as sole nitrogen source (K. pneumoniae [6]): not viable
- Kd ([7]; read-out: KD1 for Ni^2+): 0.64 µM
- Kd ([7]; read-out: KD2 for Ni^2+): 8.8 µM
